The test system of the series is CCRIS mutagenicity, Ames/micronucleus/aberration tests. Briefly: CCRIS mutagenicity studies.
The mark [1] stands for this setting: Test System: AMES SALMONELLA TYPHIMURIUM, Strain/Indicator: TA98, Metabolic Activation: NONE, Method: PREINCUBATION
Setting [2] is: Test System: AMES SALMONELLA TYPHIMURIUM, Strain/Indicator: TA98, Metabolic Activation: NONE, Method: STANDARD PLATE.
[3] abbreviates: Test System: AMES SALMONELLA TYPHIMURIUM, Strain/Indicator: TA98, Metabolic Activation: RAT, LIVER, S-9, AROCLOR 1254, Method: STANDARD PLATE.
Where [4] appears, read: Test System: AMES SALMONELLA TYPHIMURIUM, Strain/Indicator: TA100, Metabolic Activation: NONE, Method: PREINCUBATION
The mark [5] stands for this setting: Test System: AMES SALMONELLA TYPHIMURIUM, Strain/Indicator: TA100, Metabolic Activation: NONE, Method: STANDARD PLATE.
[6] abbreviates: Test System: AMES SALMONELLA TYPHIMURIUM, Strain/Indicator: TA100, Metabolic Activation: RAT, LIVER, S-9, AROCLOR 1254, Method: STANDARD PLATE.
The mark [7] stands for this setting: Test System: AMES SALMONELLA TYPHIMURIUM, Strain/Indicator: TA1535, Metabolic Activation: NONE, Method: PREINCUBATION
Setting [8] is: Test System: AMES SALMONELLA TYPHIMURIUM, Strain/Indicator: TA1537, Metabolic Activation: NONE, Method: PREINCUBATION

The source made the active and inactive calls. No rule for the calls is given here.

Take `CCOC(=O)CBr`: the mutagenic call (End Point: IN VITRO CHROMOSOMAL ABERRATIONS, Test System: CHL CELLS, Metabolic Activation: RAT, LIVER, S-9, SODIUM PHENOBARBITAL AND 5,6-BENZOFLAVONE) was “inactive; negative; authors report equivocal results for structural changes at highest dos”; the mutagenic call under setting [1] was “inactive; negative”; the mutagenic call under setting [2] was “inactive; negative”; the mutagenic call (Test System: AMES SALMONELLA TYPHIMURIUM, Strain/Indicator: TA98, Metabolic Activation: RAT LIVER S-9, PHENOBARBITAL AND BETA-NAPHTHOFLAVONE, Method: PREINCUBATION) was “inactive; negative”; the mutagenic call under setting [3] is “inactive; negative”; the mutagenic call under setting [4] was “inactive; negative”. The mutagenic call is “inactive; negative” under setting [5]; “inactive; negative” (Test System: AMES SALMONELLA TYPHIMURIUM, Strain/Indicator: TA100, Metabolic Activation: RAT LIVER S-9, PHENOBARBITAL AND BETA-NAPHTHOFLAVONE, Method: PREINCUBATION); “inactive; negative” under setting [6]; “inactive; negative” (Test System: AMES SALMONELLA TYPHIMURIUM, Strain/Indicator: TA102, Metabolic Activation: NONE, Method: PREINCUBATION); “inactive; negative” (Test System: AMES SALMONELLA TYPHIMURIUM, Strain/Indicator: TA102, Metabolic Activation: RAT LIVER S-9, PHENOBARBITAL AND BETA-NAPHTHOFLAVONE, Method: PREINCUBATION); “inactive; negative” (Test System: AMES SALMONELLA TYPHIMURIUM, Strain/Indicator: TA104, Metabolic Activation: NONE, Method: PREINCUBATION). Further, the mutagenic call (Test System: AMES SALMONELLA TYPHIMURIUM, Strain/Indicator: TA104, Metabolic Activation: RAT LIVER S-9, PHENOBARBITAL AND BETA-NAPHTHOFLAVONE, Method: PREINCUBATION) was “active; positive”; the mutagenic call (Test System: AMES SALMONELLA TYPHIMURIUM, Strain/Indicator: TA1535, Metabolic Activation: HAMSTER, LIVER, S-9, AROCLOR 1254, Method: STANDARD PLATE) is “inactive; negative”; the mutagenic call under setting [7] is “inactive; negative”; the mutagenic call (Test System: AMES SALMONELLA TYPHIMURIUM, Strain/Indicator: TA1535, Metabolic Activation: NONE, Method: STANDARD PLATE) is “inactive; negative”; the mutagenic call (Test System: AMES SALMONELLA TYPHIMURIUM, Strain/Indicator: TA1535, Metabolic Activation: RAT LIVER S-9, PHENOBARBITAL AND BETA-NAPHTHOFLAVONE, Method: PREINCUBATION) is “inactive; negative”; the mutagenic call (Test System: AMES SALMONELLA TYPHIMURIUM, Strain/Indicator: TA1535, Metabolic Activation: RAT, LIVER, S-9, AROCLOR 1254, Method: STANDARD PLATE) was “inactive; negative”. The mutagenic call is “inactive; negative” (Test System: AMES SALMONELLA TYPHIMURIUM, Strain/Indicator: TA1537, Metabolic Activation: HAMSTER, LIVER, S-9, AROCLOR 1254, Method: STANDARD PLATE); “inactive; negative” under setting [8]; “inactive; negative” (Test System: AMES SALMONELLA TYPHIMURIUM, Strain/Indicator: TA1537, Metabolic Activation: NONE, Method: STANDARD PLATE); “inactive; negative” (Test System: AMES SALMONELLA TYPHIMURIUM, Strain/Indicator: TA1537, Metabolic Activation: RAT LIVER S-9, PHENOBARBITAL AND BETA-NAPHTHOFLAVONE, Method: PREINCUBATION); “inactive; negative” (Test System: AMES SALMONELLA TYPHIMURIUM, Strain/Indicator: TA1537, Metabolic Activation: RAT, LIVER, S-9, AROCLOR 1254, Method: STANDARD PLATE); “inactive; negative” (Test System: AMES SALMONELLA TYPHIMURIUM, Strain/Indicator: TA1538, Metabolic Activation: HAMSTER, LIVER, S-9, AROCLOR 1254, Method: STANDARD PLATE). The mutagenic call is “inactive; negative” (Test System: AMES SALMONELLA TYPHIMURIUM, Strain/Indicator: TA1538, Metabolic Activation: NONE, Method: STANDARD PLATE); “inactive; negative” (Test System: AMES SALMONELLA TYPHIMURIUM, Strain/Indicator: TA1538, Metabolic Activation: RAT, LIVER, S-9, AROCLOR 1254, Method: STANDARD PLATE); “inactive; negative” (Test System: E.COLI, Strain/Indicator: WP2UVRA/PKM101, Metabolic Activation: NONE, Method: PREINCUBATION); “active; positive” (Test System: E.COLI, Strain/Indicator: WP2UVRA/PKM101, Metabolic Activation: RAT LIVER S-9, PHENOBARBITAL AND BETA-NAPHTHOFLAVONE, Method: PREINCUBATION); “inactive; negative” (Test System: E.COLI, Strain/Indicator: WP2UVRA, Metabolic Activation: NONE, Method: PREINCUBATION); “inactive; negative” (Test System: E.COLI, Strain/Indicator: WP2UVRA, Metabolic Activation: RAT LIVER S-9, PHENOBARBITAL AND BETA-NAPHTHOFLAVONE, Method: PREINCUBATION). Moreover, the mutagenic call is, setting by setting: (Test System: MOUSE LYMPHOMA, Strain/Indicator: L5178Y (TK+/TK-), Metabolic Activation: NONE, Method: SUSPENSION/PLATE) “active; positive. reevaluation of results: inconclusive”; (Test System: MOUSE LYMPHOMA, Strain/Indicator: L5178Y (TK+/TK-), Metabolic Activation: RAT, LIVER, S-9, AROCLOR 1254, Method: SUSPENSION/PLATE) “active; positive. reevaluation of results: inconclusive”.

Consider `Cc1ccccc1OP(=O)(Oc1ccccc1)Oc1ccccc1`, for which the mutagenic call (Test System: AMES SALMONELLA TYPHIMURIUM, Strain/Indicator: TA98, Metabolic Activation: HAMSTER, LIVER, S-9, AROCLOR 1254 (10%), Method: PREINCUBATION) was “inactive; negative”; the mutagenic call under setting [1] is “inactive; negative”; the mutagenic call (Test System: AMES SALMONELLA TYPHIMURIUM, Strain/Indicator: TA98, Metabolic Activation: RAT, LIVER, S-9, AROCLOR 1254 (10%), Method: PREINCUBATION) was “inactive; negative”; the mutagenic call (Test System: AMES SALMONELLA TYPHIMURIUM, Strain/Indicator: TA100, Metabolic Activation: HAMSTER, LIVER, S-9, AROCLOR 1254 (10%), Method: PREINCUBATION) is “inactive; negative”; the mutagenic call under setting [4] is “inactive; negative”; the mutagenic call (Test System: AMES SALMONELLA TYPHIMURIUM, Strain/Indicator: TA100, Metabolic Activation: RAT, LIVER, S-9, AROCLOR 1254 (10%), Method: PREINCUBATION) was “inactive; negative”. Besides, the mutagenic call was “inactive; negative” (Test System: AMES SALMONELLA TYPHIMURIUM, Strain/Indicator: TA1535, Metabolic Activation: HAMSTER, LIVER, S-9, AROCLOR 1254 (10%), Method: PREINCUBATION); “inactive; negative” under setting [7]; “inactive; negative” (Test System: AMES SALMONELLA TYPHIMURIUM, Strain/Indicator: TA1535, Metabolic Activation: RAT, LIVER, S-9, AROCLOR 1254 (10%), Method: PREINCUBATION); “inactive; negative” (Test System: AMES SALMONELLA TYPHIMURIUM, Strain/Indicator: TA1537, Metabolic Activation: HAMSTER, LIVER, S-9, AROCLOR 1254 (10%), Method: PREINCUBATION); “inactive; negative” under setting [8]; “inactive; negative” (Test System: AMES SALMONELLA TYPHIMURIUM, Strain/Indicator: TA1537, Metabolic Activation: RAT, LIVER, S-9, AROCLOR 1254 (10%), Method: PREINCUBATION).

For `Cc1ccccc1N=O`, the mutagenic call was “inactive; negative” under setting [2]; “inactive; negative” (Test System: AMES SALMONELLA TYPHIMURIUM, Strain/Indicator: TA98, Metabolic Activation: RAT, LIVER, S-9, AROCLOR 1254, Method: PREINCUBATION); “inactive; negative” under setting [3]; “inactive; negative” under setting [5]; “active; positive” under setting [6].

Regarding `CN(N=O)C(=O)Oc1cccc2ccccc12`, the mutagenic call was “active; positive” (End Point: IN VITRO CHROMOSOMAL ABERRATIONS, Test System: CHINESE HAMSTER V79-E CELLS, Metabolic Activation: NONE) and “active; positive” (Test System: E. COLI WP2, Strain/Indicator: WP2, Metabolic Activation: NONE, Method: STANDARD PLATE).

These data come from PubChem BioAssay AID1259407 (Chemical Carcinogenesis Research Information System (CCRIS), 2018).
